Assay results: patent publication EP0751768B1, “ANTI-VIRAL AND ANTI-CANCER AGENT” (Radopath Pharmaceuticals International Limited, priority 1994, dated 1995)
Several values for one entry are separate records, joined by “and”; a condition that tells them apart may be missing. Equal entries are not always repeated. Where two headings read alike, the source gives them in different places.

Key:
[1] = tested on: HIV-1RF; assay: microbe, parasite or virus in culture; format: cell-based, human immunodeficiency virus HIV-1RF; details: read-out: IC50
[2] = tested on: uninfected cells
[3] = tested on: HIV-I IIIB; assay: Acute infection assay, HIV core antigen ELISA (HIV-I IIIB); format: cell-based
[4] = tested on: MAC15A (murine adenocarcinoma colon); format: in vivo, NMR1 mice
[5] = tested on: B16F1-murine melanoma; format: in vivo
[6] = in vitro; details: CC50 (Toxicity)
[7] = tested on: M5076-reticulum cell sarcoma; assay: Anti-tumour activity against M5076 solid tumour (tumour weight inhibition); format: in vivo, murine
Description: The in vivo anti-tumour responses of the compound according to the invention were assessed against the ascitic tumours, MAC15A murine colon adenocarcinoma and various solid tumour models. The MAC15A ascites tumour cells were transplanted into male NMR1 mice by ip innoculation at a cell density of 1 x 10^5 cells in 200µl buffer (Table I). The solid tumour models included the MAC13 and MAC16 murine colon adenocarcinomas, the B16 F1 murine melanoma and the M5076 reticulum cell sarcoma.
Treatment commenced 3 days after ip transplant or, in the case of solid tumours such as MAC13 and MAC16, treatment commenced when average tumour volumes reached 40mm^3.
The animals were located in both cases into groups of 5 to 8 animals.
The animals were sacrificed after 12 days or when tumours ulcerated, tumour volume exceeded 1000mm^3 or loss of body weight exceeded 50%.
Except where otherwise stated, the compound used was dissolved in DMSO and diluted in sterile distilled water, at appropriate concentrations before administration in a solvent volume of 200µl. Anti-tumour responses were obtained by comparing the median survival times or tumour growth inhibition against solvent controls.
% Tumour Weight Inhibition:-

[8] = in vivo; details: rat, iv
[9] = tested on: HIV-1 infection; assay: Pilot study of C17 in patients with HIV-1 infection and HIV-related Kaposi's sarcoma; format: in vivo, humans; parameters: CD4 ABS / CD8 ABS: unit not given here
[10] = rats, preliminary data
[11] = In vitro anti-tumour activity; format: cell-based; details: compound appears to require activation in the liver
[12] = in vivo; details: mouse, iv
[13] = mice, preliminary data
[14] = tested on: B16 murine melanoma; assay: Anti-tumour activity of C17 against B16 melanoma (tumour weight inhibition); format: in vivo, female C57/black mice
[15] = control compounds in infected cells
[16] = read-out: CC50 (Toxicity), listed under Against HIV-I IIIB, single determinations
[17] = Against HIV-I IIIB, single determinations, read-out: IC50 (Antiviral)
[18] = 100mg kg^-1 ip per day, schedule days 1,2,3,4,5, median, T-test group, C-solvent control, 5 animals per group
[19] = read-out: CC50 (Toxicity), Average, listed under Against HIV-I IIIB, average of the lines above
[20] = Against HIV-I IIIB, average of the lines above, read-out: IC50 (Antiviral), Average
[21] = day 7, MTD by 5 consecutive daily intravenous injections

Nc1ccn([C@H]2CC[C@@H](CO)O2)c(=O)n1 [ddC]
IC50 [1, 15]: 0.2 µM

CC(C)(C)NC(=O)[C@@H]1C[C@@H]2CCCC[C@@H]2CN1C[C@@H](O)[C@H](Cc1ccccc1)NC(=O)[C@H](CC(N)=O)NC(=O)c1ccc2ccccc2n1 [compound 8959]
IC50 [1, 15]: 0.001 µM

NC(=O)c1cc([N+](=O)[O-])c(Cl)c([N+](=O)[O-])c1 [C5]
CC50 [2, 16]: 50 µM
IC50 [3, 17]: 5 µM

O=C(O)c1ccc(Cl)c(Cl)c1 [C11, 3,4-dichlorobenzoic acid]
CC50 [2]: > 200 µM

O=C(O)c1cc(Cl)ccc1Cl [C12, 2,5-dichlorobenzoic acid]
CC50 [2]: > 200 µM
IC50 ([3]; Human immunodeficiency virus 1, IIIB, read-out: IC50 (Antiviral)): > 200 µM
T/C% ([4]; mouse, in vivo, ip): 171%

O=C(O)c1cc([N+](=O)[O-])cc([N+](=O)[O-])c1 [C29, 3,5-dinitrobenzoic acid]
T/C% [4, 18]: 100%

O=C(O)c1cc([N+](=O)[O-])c(Cl)c([N+](=O)[O-])c1 [C4, 4-chloro-3,5-dinitrobenzoic acid]
CD50 ([2]; Table 7, 50% inhibition of cells by 14C protein hydrolysate uptake): 70µm
CC50 [2, 19]: 85 µM
CC50 [2, 16]: 100 µM and 70 µM
IC50 [3, 20]: 35 µM
IC50 [3, 17]: 40 µM and 30 µM
% Tumour Weight Inhibition ([5]; 50 mg/kg per day ip, days 1,5, 12 days after sc transplant, corn oil): 10%
% Tumour Weight Inhibition ([5]; 75 mg/kg per day ip, days 1,5, 12 days after sc transplant, corn oil): 41%
% Tumour Weight Inhibition ([5]; 100 mg/kg per day ip, days 1,5, 12 days after sc transplant, corn oil): 39%
IC50 ([1]; Table 7, 50% reduction in HIV core antigen levels, 72 hours post-infection): 30 µM
T/C% [4, 18]: 271%

O=C(O)c1ccc([N+](=O)[O-])cc1[N+](=O)[O-] [C28, 2,4-dinitrobenzoic acid]
T/C% [4, 18]: 100%

O=C(O)c1cc([N+](=O)[O-])cc([N+](=O)[O-])c1Cl [C7, 2-chloro-3,5-dinitrobenzoic acid]
CC50 [2, 19]: > 175 µM
IC50 [3, 20]: 22 µM
CC50 at 72 h ([6]; listed under Against HIV-I IIIB, single determinations): 35 µM

COC(=O)c1cc([N+](=O)[O-])c(Cl)c([N+](=O)[O-])c1 [C6, 4-chloro-3,5-dinitrobenzoic acid methyl ester]
CC50 [2]: 60 µM
SI (Selectivity Index) [3]: 12
% Tumour Weight Inhibition ([5]; mouse, in vivo): 67% and 43%

Cc1cn([C@H]2C[C@H](N=[N+]=[N-])[C@@H](CO)O2)c(=O)[nH]c1=O [AZT]
IC50 [1]: 0.01 µM and 0.02 µM

O=C(O)c1ccc([N+](=O)[O-])cc1Cl [C10, 2-chloro-4-nitrobenzoic acid]
CC50 [2]: > 200 µM

NC(=O)c1cc([N+](=O)[O-])c(Cl)c([N+](=O)[O-])c1Cl [the amide]
anti-tumour activity (in words) [7]: without anti-tumour activity
increase in toxicity ([7]; relative to 2,4-dichloro-3,5-dinitrobenzoic acid): 10 fold

NC(=O)c1cc([N+](=O)[O-])c(Cl)c([N+](=O)[O-])c1Cl [C2]
CC50 [2, 16]: 70 µM
IC50 [3, 17]: 2 µM

O=C(O)c1cc([N+](=O)[O-])ccc1Cl [C17, 2-chloro-5-nitrobenzoic acid]
MTD at 5 days [8]: 900 mg/kg/day
CD4 ABS ([9]; Patient 1, After (day 20), Before (day 1): 0.399, 10mg/kg body weight/day im 5 days weekly): 0.760
CD8 ABS ([9]; Patient 1, After (day 20), Before (day 1): 0.567, 10mg/kg body weight/day im 5 days weekly): 0.840
CD4/CD8 ([9]; Patient 1, After (day 20), Before (day 1): 0.70, 10mg/kg body weight/day im 5 days weekly): 0.90
Lymphocytes ([9]; Patient 1, After (day 20), Before (day 1): 2.1, 10mg/kg body weight/day im 5 days weekly): 2.0 x 10^3mm^-3
CD4 % ([9]; Patient 1, After (day 20), Before (day 1): 19, 10mg/kg body weight/day im 5 days weekly): 38%
CD4 ABS ([9]; Patient 2, After (day 14), Before (day 1): 0.360, 10mg/kg body weight/day im 5 days weekly): 0.513
CD4/CD8 ([9]; Patient 2, After (day 14), Before (day 1): 0.38, 10mg/kg body weight/day im 5 days weekly): 0.59
CD8 ABS ([9]; Patient 2, After (day 14), Before (day 1): 0.940, 10mg/kg body weight/day im 5 days weekly): 0.874
Lymphocytes ([9]; Patient 2, After (day 14), Before (day 1): 2.0, 10mg/kg body weight/day im 5 days weekly): 1.9 x 10^3mm^-3
CD4 % ([9]; Patient 2, After (day 14), Before (day 1): 18, 10mg/kg body weight/day im 5 days weekly): 27%
CD4 ABS ([9]; Patient 3, After (day 20), Before (day 1): 0.072, 10mg/kg body weight/day im 5 days weekly): 0.187
CD8 ABS ([9]; Patient 3, After (day 20), Before (day 1): 0.270, 10mg/kg body weight/day im 5 days weekly): 0.682
CD4/CD8 ([9]; Patient 3, After (day 20), Before (day 1): 0.27, 10mg/kg body weight/day im 5 days weekly): 0.27
Lymphocytes ([9]; Patient 3, After (day 20), Before (day 1): 0.9, 10mg/kg body weight/day im 5 days weekly): 1.1 x 10^3mm^-3
CD4 % ([9]; Patient 3, After (day 20), Before (day 1): 8, 10mg/kg body weight/day im 5 days weekly): 17%
CD4/CD8 ([9]; Patient 4, After (day 14), Before (day 1): 0.08, 10mg/kg body weight/day im 5 days weekly): 0.35
CD4 ABS ([9]; Patient 4, After (day 14), Before (day 1): 0.108, 10mg/kg body weight/day im 5 days weekly): 0.440
CD8 ABS ([9]; Patient 4, After (day 14), Before (day 1): 1.350, 10mg/kg body weight/day im 5 days weekly): 1.260
Lymphocytes ([9]; Patient 4, After (day 14), Before (day 1): 1.8, 10mg/kg body weight/day im 5 days weekly): 2.0 x 10^3mm^-3
CD4 % ([9]; Patient 4, After (day 14), Before (day 1): 6, 10mg/kg body weight/day im 5 days weekly): 22%
CD4/CD8 ([9]; Patient 5, After (day 21), Before (day 1): 0.56, 10mg/kg body weight/day im 5 days weekly): 0.66
CD4 ABS ([9]; Patient 5, After (day 21), Before (day 1): 0.812, 10mg/kg body weight/day im 5 days weekly): 1.023
CD8 ABS ([9]; Patient 5, After (day 21), Before (day 1): 1.456, 10mg/kg body weight/day im 5 days weekly): 1.550
Lymphocytes ([9]; Patient 5, After (day 21), Before (day 1): 2.8, 10mg/kg body weight/day im 5 days weekly): 3.1 x 10^3mm^-3
CD4 % ([9]; Patient 5, After (day 21), Before (day 1): 29, 10mg/kg body weight/day im 5 days weekly): 33%
CD4/CD8 ([9]; Patient 6 (AIDS-related Kaposi's sarcoma), After (day 34), Before (day 1): 0.31, 10mg/kg body weight/day im 5 days weekly): 0.47
CD4 ABS ([9]; Patient 6 (AIDS-related Kaposi's sarcoma), After (day 34), Before (day 1): 0.378, 10mg/kg body weight/day im 5 days weekly): 0.437
CD8 ABS ([9]; Patient 6 (AIDS-related Kaposi's sarcoma), After (day 34), Before (day 1): 1.218, 10mg/kg body weight/day im 5 days weekly): 0.931
Lymphocytes ([9]; Patient 6 (AIDS-related Kaposi's sarcoma), After (day 34), Before (day 1): 2.1, 10mg/kg body weight/day im 5 days weekly): 1.9 x 10^3mm^-3
CD4 % ([9]; Patient 6 (AIDS-related Kaposi's sarcoma), After (day 34), Before (day 1): 18, 10mg/kg body weight/day im 5 days weekly): 23%
sarcoma lesions (in words) ([9]; Patient 6, AIDS-related Kaposi's sarcoma): disappeared
CD4 counts (in words) ([9]; all 6 patients, about 2 weeks after the beginning of the therapy, 10mg/kg body weight/day im 5 days weekly): showed an increase
patient general condition (in words) ([9]; including weight gain and a marked decrease in opportunistic infections and diarrhea): clinical improvements
red blood cell count, haemoglobin concentration, macrophage count, white blood cell count (WBC), lymphocyte count and haematocrit (HTC) [10, 21]: increases
red blood cell count, haemoglobin concentration, macrophage count, white blood cell count (WBC), lymphocyte count and haematocrit (HTC) ([10]; day 14): returned to normal
anti-tumour activity in vitro (in words) [11]: could not be supported in vitro
MTD at 5 days [12]: 950 mg/kg/day
red blood cell count, haemoglobin concentration, macrophage count, white blood cell count (WBC), lymphocyte count and haematocrit (HTC) [13, 21]: increases
red blood cell count, haemoglobin concentration, macrophage count, white blood cell count (WBC), lymphocyte count and haematocrit (HTC) ([13]; day 14): returned to normal
CC50 [6]: > 1000 µM
% Tumour Weight Inhibition ([14]; 700 mg/kg per day ip, days 1,2,3,4,5,6, 12 days after sc transplant, 6 animals per group): 62%
anti-tumour activity in vivo (in words) ([14]; refers to Table 6): considerable anti-tumour activity

O=C(O)c1ccc(Cl)c([N+](=O)[O-])c1 [C9, 4-chloro-3-nitrobenzoic acid]
CC50 [2]: > 200 µM

COC(=O)c1cc([N+](=O)[O-])cc([N+](=O)[O-])c1Cl [C8, 2-chloro-3,5-dinitrobenzoic acid methyl ester]
CC50 [2]: 60 µM
SI (Selectivity Index) [3]: 5
